Tested on: cellular retinoic acid binding protein II (CRABP II)
Assay: Clinical trial: CRABP II in human epidermis after topical retinol with or without microneedle treatment (Western blotting)
Assay type: in vivo
Conditions: once a day for four days
From the text: Ten subjects between the ages of 25 and 50 were recruited into a clinical trial to test the efficacy of microneedles 58 after having given informed consent to a protocol approved by an internal review board. Needles 58 that are acupuncture needles (Seirin, 0.12 mm×30 mm) were fixed in narrow diameter plastic tubes, i.e., positioning collars 60, with adhesive so that needle tips protruded approximately 250 microns beyond the end of positioning collar 60. This arrangement prevented excessive penetration during use. The protocol provided for the application on the skin of the lower back of a vehicle alone or vehicle containing either 0.05% or 0.1% retinol. In vehicle alone sites and 0.05% retinol sites microneedles 58 were applied at a density of 100 strikes per square centimeter. Adhesive rings with an internal area of 1.5 square centimeters were used to define the treatment areas. Microneedle device 10 was held in the operator's hand and lightly impacted on the subject's skin. Aliquots of twenty microliters of treatment solution were applied to the relevant sites immediately after microneedling. Sites were treated once a day for four days. On the fifth day epidermal samples were taken with an abrasive probe and placed in extraction buffer (see above). Samples were analysed with polyacrylamide gel electrophoresis and Western blotting for the presence of cellular retinoic acid binding protein II (CRABP II), a protein considered to be a marker for retinoid activity in skin.

Question: For `CC1=C(/C=C/C(C)=C/C=C/C(C)=C/CO)C(C)(C)CCC1` [retinol], which “CRABP II expression in epidermis, microneedle + 0.05% retinol versus 0.05% retinol alone” value (microneedles 100 strikes per square centimeter + 0.05% retinol, P<0.05) is on record?
Answer: increased CRABP II expression above that seen with 0.05% retinol alone

Question: And the “CRABP II expression elevation, microneedles + 0.05% retinol versus 0.1% retinol alone” value (microneedles 100 strikes per square centimeter + 0.05% retinol, statistically significant)?
Answer: greater than that associated with the 0.1% retinol alone treatment

Question: What about the “CRABP II expression in epidermis” value (vehicle alone, 0.05% or 0.1% retinol on skin of lower back, sampled on fifth day) of the same molecule?
Answer: dose-dependent increase in CRABP II
